From article PMC11465415, “Characterization of conformational states of the homodimeric enzyme fluoroacetate dehalogenase by ^19F–^13C two-dimensional NMR” (RSC Chemical Biology, 2024) come the findings set out here.

The target of the assay is T1, fluoroacetate dehalogenase (FAcD) (Rhodopseudomonas palustris, UniProt Q6NAM1).
T1 construct: gene RPA1163; 300-residue homodimer expressed in E. coli BL21; all Trp replaced biosynthetically by 5-fluoro-(phenyl-13C6)-L-tryptophan; 9 Trp per protomer
Put plainly: […]-13C TROSY HSQC and 1D […] NMR. It is filed as binding. Particulars: 50 °C; enzyme saturated with bromoacetate; 5-fluorotryptophan-labelled enzyme; active site; unreacted substrate analogue.

T1 sequence (Q6NAM1 whole entry): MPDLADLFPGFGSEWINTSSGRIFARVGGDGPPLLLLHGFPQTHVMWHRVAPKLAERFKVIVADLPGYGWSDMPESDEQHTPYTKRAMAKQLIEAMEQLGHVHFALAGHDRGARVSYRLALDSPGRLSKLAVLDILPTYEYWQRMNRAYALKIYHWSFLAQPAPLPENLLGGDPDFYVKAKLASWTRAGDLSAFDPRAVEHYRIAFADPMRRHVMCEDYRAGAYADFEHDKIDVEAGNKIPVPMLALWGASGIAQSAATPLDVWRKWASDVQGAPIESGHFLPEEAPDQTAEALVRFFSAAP

On to `O=C(O)CBr` [bromoacetate], for which the “19F-13C TROSY HSQC and 1D 19F NMR” value is given as “The addition of BrAc is also observed to result in a pronounced shift for W185”.
